Marks after values point to notes of the source that are not given here.
Tests used:
[1] = molecular target: T1, Pancreatic Lipase (Porcine) (Sus scrofa, UniProt P00591); assay: In vitro FRET-based pancreatic lipase assay with reporter compound 17; format: biochemical; settings: preliminary studies, substrate 17
T1 sequence (P00591 1-450): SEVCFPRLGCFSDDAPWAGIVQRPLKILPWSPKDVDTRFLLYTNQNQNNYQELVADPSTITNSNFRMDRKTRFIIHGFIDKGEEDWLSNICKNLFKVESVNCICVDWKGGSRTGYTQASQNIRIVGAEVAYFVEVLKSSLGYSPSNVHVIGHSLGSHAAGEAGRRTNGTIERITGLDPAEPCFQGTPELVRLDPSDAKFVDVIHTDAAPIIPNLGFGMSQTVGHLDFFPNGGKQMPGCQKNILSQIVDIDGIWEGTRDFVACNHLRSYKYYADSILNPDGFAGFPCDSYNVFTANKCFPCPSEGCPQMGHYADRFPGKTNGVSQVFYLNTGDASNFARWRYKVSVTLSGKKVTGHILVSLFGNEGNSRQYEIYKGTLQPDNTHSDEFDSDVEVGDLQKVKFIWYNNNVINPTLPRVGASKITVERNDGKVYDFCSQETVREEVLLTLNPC

hDAGLα [2] = molecular target: T2, hDAGLα (Homo sapiens, UniProt Q9Y4D2); assay: Radio-TLC assay of hDAGLα inhibition with [14C]SAG substrate; format: biochemical; settings: for inhibition of hDAGLα activity at 10 μM (in words): radiolabeled substrate [14C]SAG
T2 sequence (Q9Y4D2 1-1042): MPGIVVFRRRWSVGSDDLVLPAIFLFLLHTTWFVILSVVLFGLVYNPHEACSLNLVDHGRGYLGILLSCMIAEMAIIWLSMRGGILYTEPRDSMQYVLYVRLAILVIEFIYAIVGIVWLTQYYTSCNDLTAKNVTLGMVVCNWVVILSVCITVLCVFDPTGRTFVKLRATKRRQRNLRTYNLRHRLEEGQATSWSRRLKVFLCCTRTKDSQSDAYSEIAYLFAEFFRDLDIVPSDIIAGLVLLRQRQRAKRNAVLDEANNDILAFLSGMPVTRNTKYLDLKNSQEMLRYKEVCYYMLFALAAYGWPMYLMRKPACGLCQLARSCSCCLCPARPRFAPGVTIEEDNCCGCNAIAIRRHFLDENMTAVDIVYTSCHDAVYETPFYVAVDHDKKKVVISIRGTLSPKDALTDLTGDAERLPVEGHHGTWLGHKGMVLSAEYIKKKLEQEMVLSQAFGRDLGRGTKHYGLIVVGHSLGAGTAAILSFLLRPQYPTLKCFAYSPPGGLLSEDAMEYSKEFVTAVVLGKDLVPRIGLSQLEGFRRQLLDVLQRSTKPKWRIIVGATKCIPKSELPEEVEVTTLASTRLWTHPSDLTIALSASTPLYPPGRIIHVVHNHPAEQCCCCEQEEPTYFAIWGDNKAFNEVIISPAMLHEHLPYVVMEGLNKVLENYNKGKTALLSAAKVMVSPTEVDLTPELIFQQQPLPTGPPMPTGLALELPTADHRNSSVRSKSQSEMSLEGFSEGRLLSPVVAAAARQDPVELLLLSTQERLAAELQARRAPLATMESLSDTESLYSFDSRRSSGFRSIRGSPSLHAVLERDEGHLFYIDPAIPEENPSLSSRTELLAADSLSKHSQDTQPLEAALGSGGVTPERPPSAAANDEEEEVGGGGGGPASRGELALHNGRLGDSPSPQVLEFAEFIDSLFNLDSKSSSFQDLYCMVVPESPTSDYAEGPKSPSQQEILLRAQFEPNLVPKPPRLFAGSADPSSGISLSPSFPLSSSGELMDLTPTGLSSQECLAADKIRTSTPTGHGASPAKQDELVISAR

[3] = system: Lipoprotein Lipase (Bacterial); assay: In vitro FRET-based lipoprotein lipase assay with reporter compound 17; format: biochemical, Pseudomonas sp.
hDAGLα [4] = molecular target: T2, hDAGLα; settings: cited from earlier work
FAAH = settings: cited from earlier work
cannabinoid receptors = settings: cited from earlier work
[5] = molecular target: CB1 (rat brain preparation) (Rattus norvegicus, UniProt P20272); assay: Cannabinoid receptor competition binding, CB1
hDAGLα [6] = molecular target: T2, hDAGLα; assay: In vitro FRET-based DAGL assay with reporter compound 17; format: biochemical
mDAGLβ = molecular target: T3, mDAGLβ (Mus musculus, UniProt Q91WC9); assay: Radio-TLC assay of mDAGLβ inhibition with [14C]SAG substrate; format: biochemical, murine
T3 sequence (Q91WC9 1-669): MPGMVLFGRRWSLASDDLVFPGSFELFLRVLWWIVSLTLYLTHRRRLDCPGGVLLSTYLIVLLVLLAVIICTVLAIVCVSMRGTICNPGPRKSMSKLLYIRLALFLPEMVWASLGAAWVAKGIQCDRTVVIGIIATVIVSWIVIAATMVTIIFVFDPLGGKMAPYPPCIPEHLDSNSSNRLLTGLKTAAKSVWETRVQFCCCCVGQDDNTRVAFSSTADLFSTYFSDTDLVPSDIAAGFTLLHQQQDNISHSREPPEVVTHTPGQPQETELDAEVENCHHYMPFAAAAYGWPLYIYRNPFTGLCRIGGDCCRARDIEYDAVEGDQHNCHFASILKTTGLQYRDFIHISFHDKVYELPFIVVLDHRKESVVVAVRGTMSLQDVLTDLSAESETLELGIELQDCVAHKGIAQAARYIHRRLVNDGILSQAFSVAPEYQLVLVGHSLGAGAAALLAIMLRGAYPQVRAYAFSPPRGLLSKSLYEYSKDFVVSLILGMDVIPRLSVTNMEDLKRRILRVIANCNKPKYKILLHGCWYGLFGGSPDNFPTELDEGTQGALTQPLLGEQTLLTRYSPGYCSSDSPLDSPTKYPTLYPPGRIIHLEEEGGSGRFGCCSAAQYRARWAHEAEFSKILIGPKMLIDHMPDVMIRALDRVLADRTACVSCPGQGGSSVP

Sequence of CB1 (rat brain preparation) (P20272 whole entry): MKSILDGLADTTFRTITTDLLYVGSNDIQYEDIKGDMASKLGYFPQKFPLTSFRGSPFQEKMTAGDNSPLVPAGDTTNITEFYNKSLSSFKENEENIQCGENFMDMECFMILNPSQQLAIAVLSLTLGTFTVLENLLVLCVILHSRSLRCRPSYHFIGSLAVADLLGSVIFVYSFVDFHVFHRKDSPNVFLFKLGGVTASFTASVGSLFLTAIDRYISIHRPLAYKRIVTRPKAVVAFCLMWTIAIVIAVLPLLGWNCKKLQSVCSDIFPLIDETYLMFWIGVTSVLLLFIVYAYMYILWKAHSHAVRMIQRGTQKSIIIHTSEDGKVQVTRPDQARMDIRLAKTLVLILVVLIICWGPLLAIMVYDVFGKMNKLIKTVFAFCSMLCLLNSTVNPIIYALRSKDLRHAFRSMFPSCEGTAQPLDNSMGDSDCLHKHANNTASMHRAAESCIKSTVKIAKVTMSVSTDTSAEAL

Compound | inhibition of hDAGLα activity at 10 μM (in words) (hDAGLα [2]) | reported inhibition of DAGL activity (in words) (hDAGLα [4]) | reported inhibition of FAAH activity (in words) (FAAH) | inhibition of hDAGLα in radio-TLC assays (in words) (hDAGLα [2]) | binding to the cannabinoid receptors, previous reports (in words) (cannabinoid receptors) | binding to the cannabinoid receptors (in words), CB1 [5] | further results
CCCCCCCCCCC[C@@H](C[C@@H]1OC(=O)[C@H]1CCCCCC)OC(=O)[C@H](CC(C)C)NC=O [3 (THL), tetrahydrolipstatin] | complete inhibition |  |  |  |  |  | inhibition of porcine triacylglycerol lipase (in words) [1]: potent inhibition; inhibition of bacterial lipoprotein lipase (in words) [3]: potent inhibition; IC50 ([3]; read-out: apparent IC50 with lipoprotein lipase in FRET assay): ~100 nM
O=C(Oc1ccc([N+](=O)[O-])cc1)N1CCC(C(O)(c2ccc3c(c2)OCO3)c2ccc3c(c2)OCO3)CC1 [JZL184] |  | poor inhibitors | poor inhibitors | poor inhibitors | did not bind |  | 
O=S(=O)(F)Cc1ccccc1 [PMSF, phenylmethylsulfonylfluoride] |  | poor inhibitors | poor inhibitors | poor inhibitors |  |  | effect on / reaction with DAGL (in words) (hDAGLα [4]): not affected
O=C(NCCCCCCNC(=O)ON=C1CCCCC1)ON=C1CCCCC1 [RHC80267 (1), RHC80267] |  | poor inhibitors | poor inhibitors | poor inhibitors |  | did not bind | hDAGLα inhibition at 10 μM detergent free (%) (hDAGLα [6]): 40 ^* %
O=C(N[C@H]1COC1=O)OCc1ccccc1 [SD41] | did not inhibit |  |  |  |  | did not bind | inhibition of mDAGLβ at 10 μM screening concentration (in words) (mDAGLβ): did not inhibit
NC(=O)c1cccc(-c2cccc(OC(=O)NC3CCCCC3)c2)c1 [URB597] |  |  |  |  | did not bind |  | 

Reference: publication PMC3389199 (Bioorganic & medicinal chemistry letters, 2012)
